Test results reported in patent US20090081212A1, “USE AND TARGETING OF CD98 LIGHT-CHAIN PROTEINS IN THERAPIES FOR THYROID HORMONE DISORDERS” (The Government of the U.S.A., as Represented by the …, priority 2000, published 2009).

Experiments:
4F2hc-IU12 heterodimers = experiment: Thyroid hormone and amino acid transport by 4F2hc-IU12 heterodimers expressed in Xenopus oocytes (radiotracer uptake and its inhibition); format: cell-based, Xenopus laevis; conditions: for inhibition of 4F2hc-IU12 induced [3H]tryptophan uptake, in words: 1 μM tryptophan tracer, inhibitors 10 μM T4, 5 mM BCH, increasing unlabelled T3 or tryptophan; for Vmax of 4F2hc-IU12 induced transport / Km / uptake of [3H]phenylalanine and [3H]tryptophan: 4F2hc-IU12 injected oocytes; for Vmax of 4F2hc-IU12 induced transport / Km: 4 days post-injection, TH 0.05-10 μM, 60 min uptake; for Km: read-out: apparent Km of 4F2hc-IU12 induced transport; for inhibition of 4F2hc-IU12 induced 0.1 μM TH (T3) uptake, in words: inhibitors 10 μM T3/T4, 5 mM BCH, 10 mM tryptophan, data shown for T3 only; for uptake of [3H]phenylalanine and [3H]tryptophan: 50 μM amino acid, preliminary experiments
Description: Xenopus laevis toads were purchased from the South African Xenopus Facility. Chemicals were obtained from Sigma (UK) with the exception of Collagenase A (Boehringer, UK) and Ultraspec water (Ambion, UK). Radiotracers were purchased from NEN (UK). cDNAs encoding IU12 (2.3 Kb EcoRI/ApaI fragment from pBluescriptSK-IU12) (Liang et al. 1997, Cell Res 7: 179-193) and human 4F2hc (1.85 Kb Ecor1/BamH1 fragment from pSP65-4F2) (Teixeira et al. 1987, J Biol Chem 262: 9574-9580) were subcloned into the multiple-cloning region of pSG5 (an SV-40 driven expression plasmid).
(§1) Oocytes were isolated by collagenase treatment (Peter et al. 1996, Biochem J 318: 915-922) of ovarian tissue obtained from mature female Xenopus laevis toads (South African Xenopus Facility). Defolliculated, stage V-V1 (prophase-arrested) oocytes were selected and maintained at 18° C. in Modified Barth's Medium (MBM) containing (in mM): 88 NaCl, 1 KCL, 2.4 NaHCO3, 0.82 MgSO4.7H2O, 0.66 NaNO3, 0.75 CaCl2x2H2O, 5.0 HEPES, pH 7.6 with Tris base, 10 mg/liter gentamycin sulphate. For DNA injection, oocytes were transferred into individual wells of Tetraski plates pre-filled with MBM and centrifuged at 500 g for 10 minutes at 18° C., which causes migration of the nucleus to the cell surface and facilitates nuclear injection (Mertz & Gurdon 1977, PNAS 395: 288-291). The visible nucleus of each oocyte was injected with 2 ng DNA in 15 nl Ultraspec water using a pneumatic delivery system (Peter et al. 1996, Biochem J 318: 915-922). For co-injection studies, 2 ng of both DNAs (i.e. 4F2hc/IU12) were injected. Nuclei of control oocytes were injected with Ultraspec water. Oocytes were incubated in MBM at 18° C. for 4 days to allow expression of injected DNA before experimentation.
(§2) All experiments were carried out at 22° C. using Na^+-free transport buffer (unless otherwise stated) containing 100 mM tetramethylammonium chloride (TMACl), 2 mM KCl; 1 mM CaCl2; 1 mM MgCl2; 10 mM HEPES, pH 7.5 with Tris). Radiolabelled amino acid uptake (3H-phenylalanine or ^3H-tryptophan over 30 min) was also measured (Peter et al. 1996, Biochem J 318: 915-922). BCH (5 mM) was used as a specific inhibitor of amino acid transport System L.
Data are expressed as mean values±standard error of the mean (S.E.M; n=number of observations). Experimental measurements in each batch of oocytes were made on 7-11 individual oocytes. Differences between mean values were assessed using Students unpaired t-test, with significance assigned at p<0.05.

water-injected oocytes = experiment: Basal radiotracer uptake in control (water-injected) Xenopus oocytes; format: cell-based, Xenopus laevis; conditions: for uptake of [3H]phenylalanine and [3H]tryptophan: 50 μM amino acid, water-injected cells
Procedure: as §1, §2

[1] = biological target: human 4F2 heavy-chain (4F2hc) glycoprotein (human) (UniProt P08195)
[2] = tested on: BeWo placental choriocarcinoma cells; experiment: Nuclear uptake of [125I]T3 in BeWo cells; format: cell-based, human
[3] = tested on: T3-dependent transcriptional activation of a luciferase reporter in BeWo cells; experiment: T3-induced luciferase reporter activity in BeWo cells; format: cell-based, human; conditions: 24 h exposure
Procedure: FIG. 7. […] Infected cells were exposed to experimental conditions for 24 h prior to assay of luciferase activity.

[4] = tested on: T3-dependent activation of luciferase activity; experiment: Thyroid-responsive luciferase reporter (TRE) in oocytes expressing 4F2hc-IU12; format: cell-based, Xenopus laevis; conditions: 5 mM BCH, 10 nM T3, 24 h; preliminary data from one batch of oocytes
Procedure: FIG. 6. […] Ratio of luminescent counts for each oocyte type compared to thyroid-responsive luciferase (TRE)-only injected oocytes. Data shown for n=4 batches (each 7-9 oocytes). […] 4/I/R/T—4F2hc/IU12/RXRα/TRβ co-injected oocytes. RXRα/TRβ (heterodimers of RXR, or 9-cis retinoic acid receptor, and TR)— nuclear receptors for TH; *, significant change in luciferase activity compared to TRE-only injected oocytes (p<0.05). […] All incubations were performed over a 24-hour time period.
Overexpression of the 4F2hc-IU12 heterodimer in oocytes produced a functional activation of System L transporter activity.

Compound: NC(Cc1ccc(Oc2cc(I)c(O)c(I)c2)c(I)c1)C(=O)O (stereo not shown) [rT3, reverse tri-iodothyronine]
- inhibition of induced 0.1 μM T3 uptake (4F2hc-IU12 heterodimers; inhibitor 10 μM, n=3 preparations): 41±4%

Compound: O=C(O)Cc1cc(I)c(Oc2ccc(O)c(I)c2)c(I)c1 [TRIAC, triodothyroacetic acid]
- inhibition of T3 uptake, in words (water-injected oocytes; water-injected oocytes): did not inhibit
- inhibition of tryptophan uptake, in words (water-injected oocytes; water-injected oocytes): did not inhibit

Compound: N[C@@H](Cc1cc(I)c(Oc2cc(I)c(O)c(I)c2)c(I)c1)C(=O)O [T4, thyroxine]
- average increase in uptake over control (water- or IU12-injected oocytes) (4F2hc-IU12 heterodimers; 0.1 μM TH, n=5 batches of oocytes): 2.1±0.5 times
- inhibition of 4F2hc-IU12 induced [3H]tryptophan uptake, in words (4F2hc-IU12 heterodimers): has not achieved statistical significance
- Vmax of 4F2hc-IU12 induced transport (4F2hc-IU12 heterodimers): 2.0±0.6 pmol/oocyte.h
- Km (4F2hc-IU12 heterodimers): 6.3 µM
- inhibition of 4F2hc-IU12 induced 0.1 μM TH (T3) uptake, in words (4F2hc-IU12 heterodimers): mutual cross-inhibition

Compound: N[C@@H](Cc1ccccc1)C(=O)O [phenylalanine]
- uptake of [3H]phenylalanine and [3H]tryptophan (4F2hc-IU12 heterodimers): 120 pmol/oocyte.h
- uptake of [3H]phenylalanine and [3H]tryptophan (water-injected oocytes): 10 pmol/oocyte.h

Compound: Xenopus laevis IU12 light-chain (lc) permease
- uptake of [3H]phenylalanine and [3H]tryptophan into Xenopus oocytes (pmol/oocyte.h) [1]: 120
- uptake of [125I]T3 and [125I]T4 (0.1 µM) into Xenopus oocytes (times over control (T3)) [1]: 2.7

Compound: NC1(C(=O)O)CC2CCC1C2 (stereo not shown) [BCH, 2-endoamino-bicycloheptane-2-carboxylic acid]
- inhibition of 4F2hc-IU12 induced [3H]tryptophan uptake, in words (4F2hc-IU12 heterodimers): inhibited
- inhibition of 4F2hc-IU12 induced 0.1 μM TH (T3) uptake, in words (4F2hc-IU12 heterodimers): significantly inhibited
- effect on nuclear uptake of [125I]T3 [2]: inhibit
- effect on T3-dependent transcriptional activation of a luciferase reporter [3]: inhibit
- effect on T3-dependent activation of luciferase activity in oocytes expressing 4F2hc-IU12 [4]: blocked

Compound: N[C@@H](Cc1c[nH]c2ccccc12)C(=O)O [tryptophan]
- inhibition of 4F2hc-IU12 induced [3H]tryptophan uptake, in words (4F2hc-IU12 heterodimers): concentration-dependent inhibition
- control tryptophan uptake (absence of inhibitor) (4F2hc-IU12 heterodimers; 1 μM tryptophan, 4F2hc-IU12-injected oocytes): 10.2±0.4 pmol/oocyte.h
- uptake of [3H]phenylalanine and [3H]tryptophan (4F2hc-IU12 heterodimers): 120 pmol/oocyte.h
- Vmax of 4F2hc-IU12 induced transport (4F2hc-IU12 heterodimers): 180±54 pmol/oocyte.h
- Km (4F2hc-IU12 heterodimers): 70 µM
- inhibition of 4F2hc-IU12 induced 0.1 μM TH (T3) uptake, in words (4F2hc-IU12 heterodimers): significantly inhibited
- effect on nuclear uptake of [125I]T3 [2]: inhibit
- control tryptophan uptake (absence of inhibitor) (water-injected oocytes; 1 μM tryptophan, water-injected oocytes): 2.1±0.1 pmol/oocyte.h
- uptake of [3H]phenylalanine and [3H]tryptophan (water-injected oocytes): 10 pmol/oocyte.h
- effect on T3-dependent transcriptional activation of a luciferase reporter [3]: inhibit

Compound: N[C@@H](Cc1cc(I)c(Oc2ccc(O)c(I)c2)c(I)c1)C(=O)O [T3, tri-iodothyronine]
- control T3 uptake (absence of inhibitor) (water-injected oocytes; 0.1 μM T3, water-injected oocytes): 22±3 fmol/oocyte.h
